This test concerns NCI-H510 multicellular tumor spheroid growth, % test/control. The test is described as follows: Anticancer human tumor NCI-H510 cell line growth inhibition [Asc].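 For all read-outs here: spheroids exposed to agents for 7 days.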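 For viability, T/C: 100% = DMSO vehicle control wells.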 The conditions noted are these: for viability, T/C: stronger effect = lower value. In a few lines:
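Concentration series start at each agent's clinical Cmax, or at 10 microM when none is established, and drop in half-log steps; agents are applied alone or together to complex spheroids built with HUVEC and hMSC.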

Where [1] appears, read: curve of first compound, second compound 0.1 µM.
Where [2] appears, read: curve of first compound, second compound 0.316 µM.
[3] abbreviates: curve of first compound, second compound 1 µM.
Where [4] appears, read: curve of first compound, second compound 3.16 µM.
Where [5] appears, read: curve of first compound, second compound 10 µM.
Setting [6] is: second compound 0.1 µM, first compound 0.00316 µM.
Setting [7] is: second compound 0.1 µM, first compound 0.01 µM.
Setting [8] is: second compound 0.1 µM, first compound 0.0316 µM.
[9] abbreviates: second compound 0.1 µM, first compound 0.1 µM.
Setting [10] is: second compound 0.316 µM, first compound 0.00316 µM.
[11] abbreviates: second compound 0.316 µM, first compound 0.01 µM.
The mark [12] stands for this setting: second compound 0.316 µM, first compound 0.0316 µM.
[13] abbreviates: second compound 0.316 µM, first compound 0.1 µM.
[14] abbreviates: second compound 1 µM, first compound 0.00316 µM.
[15] abbreviates: second compound 1 µM, first compound 0.01 µM.
Setting [16] is: second compound 1 µM, first compound 0.0316 µM.
The mark [17] stands for this setting: second compound 1 µM, first compound 0.1 µM.
Setting [18] is: second compound 3.16 µM, first compound 0.00316 µM.
Setting [19] is: second compound 3.16 µM, first compound 0.01 µM.
[20] abbreviates: second compound 3.16 µM, first compound 0.0316 µM.
Setting [21] is: second compound 3.16 µM, first compound 0.1 µM.
Where [22] appears, read: second compound 10 µM, first compound 0.00316 µM.
[23] abbreviates: second compound 10 µM, first compound 0.01 µM.
Setting [24] is: second compound 10 µM, first compound 0.0316 µM.
Where [25] appears, read: second compound 10 µM, first compound 0.1 µM.

Structures are written as SMILES. Where “and” joins values, the source holds several entries; their conditions need not be identical. Equal values may be shown once. Where only a bound is given, the exact number is not on record here.

As a reminder, the IC50 is the concentration at which inhibition is half-maximal. The viability, T/C is the result in the treated group divided by that in the control group, in per cent. Take `CNC(C)C(=O)NC1CN(S(=O)(=O)c2cccc(S(=O)(=O)N3CCC4CCC(C(=O)NC(c5ccccc5)c5ccccc5)N4C(=O)C(NC(=O)C(C)NC)C3)c2)CCC2CCC(C(=O)NC(c3ccccc3)c3ccccc3)N2C1=O` (centres undefined) + CCN1C(C(=O)NC23CCC(C(=O)O)(CC2)CC3)C(c2cccc(Cl)c2F)C2(C(=O)Nc3cc(Cl)ccc32)C12CCCCC2: the IC50 was greater than 1000 nM (curve of first compound, second compound 0.03 µM); greater than 1000 nM (curve of first compound, second compound 0.0949 µM); greater than 1000 nM (curve of first compound, second compound 0.3 µM); greater than 1000 nM (curve of first compound, second compound 0.949 µM); greater than 1000 nM (curve of first compound, second compound 3 µM). Further, the viability, T/C (second compound 0.03 µM, first compound 0.00316 µM) is 96.8%; the viability, T/C (second compound 0.03 µM, first compound 0.01 µM) was 81.6%; the viability, T/C (second compound 0.03 µM, first compound 0.0316 µM) was 96.8%; the viability, T/C (second compound 0.03 µM, first compound 0.1 µM) was 101%; the viability, T/C (second compound 0.03 µM, first compound 0.316 µM) is 95.6%; the viability, T/C (second compound 0.03 µM, first compound 1 µM) was 97.8%. Further, the viability, T/C (second compound 0.0949 µM, first compound 0.00316 µM) is 98.5%; the viability, T/C (second compound 0.0949 µM, first compound 0.01 µM) is 104%; the viability, T/C (second compound 0.0949 µM, first compound 0.0316 µM) is 87.8%; the viability, T/C (second compound 0.0949 µM, first compound 0.1 µM) was 77.2%; the viability, T/C (second compound 0.0949 µM, first compound 0.316 µM) is 105%; the viability, T/C (second compound 0.0949 µM, first compound 1 µM) is 83.5%. Moreover, the viability, T/C (second compound 0.3 µM, first compound 0.00316 µM) was 81.6%; the viability, T/C (second compound 0.3 µM, first compound 0.01 µM) is 106%; the viability, T/C (second compound 0.3 µM, first compound 0.0316 µM) is 106%; the viability, T/C (second compound 0.3 µM, first compound 0.1 µM) is 93.4%; the viability, T/C (second compound 0.3 µM, first compound 0.316 µM) was 89.8%; the viability, T/C (second compound 0.3 µM, first compound 1 µM) was 83.7%. The viability, T/C by setting is: (second compound 0.949 µM, first compound 0.00316 µM) 110%; (second compound 0.949 µM, first compound 0.01 µM) 99.8%; (second compound 0.949 µM, first compound 0.0316 µM) 118%; (second compound 0.949 µM, first compound 0.1 µM) 96.6%; (second compound 0.949 µM, first compound 0.316 µM) 102%; (second compound 0.949 µM, first compound 1 µM) 81.7%. Also, the viability, T/C was 86.5% (second compound 3 µM, first compound 0.00316 µM); 92% (second compound 3 µM, first compound 0.01 µM); 117% (second compound 3 µM, first compound 0.0316 µM); 84.1% (second compound 3 µM, first compound 0.1 µM); 87.3% (second compound 3 µM, first compound 0.316 µM); 110% (second compound 3 µM, first compound 1 µM).
Take `Cn1ncnc1[C@H]1c2n[nH]c(=O)c3cc(F)cc(c23)N[C@@H]1c1ccc(F)cc1` + Cc1c(S(C)(=O)=O)c(-c2cc(F)cc(N3CCN(c4ccc(NS(=O)(=O)c5ccc(NC(CCN6CCC(C(=O)OCCCP(=O)(O)O)CC6)CSc6ccccc6)c(S(=O)(=O)C(F)(F)F)c5)cc4)CC3)c2)c(-c2ccc(Cl)cc2)n1C(C)C: the IC50 reads like this: under setting [1], 8.46 nM; under setting [2], 9.32 nM; under setting [3], 4.76 nM; under setting [4], 6.9 nM; under setting [5], 5 nM. Besides, the viability, T/C reads like this: (second compound 0.1 µM, first compound 0.000316 µM) 88%; (second compound 0.1 µM, first compound 0.001 µM) 101%; under setting [6], 58.5%; under setting [7], 58.2%; under setting [8], 9.67%; under setting [9], 7.11%. Further, the viability, T/C reads like this: (second compound 0.316 µM, first compound 0.000316 µM) 106%; (second compound 0.316 µM, first compound 0.001 µM) 70.3%; under setting [10], 101%; under setting [11], 47.3%; under setting [12], 5.08%; under setting [13], 5.01%. Moreover, the viability, T/C is 96.2% (second compound 1 µM, first compound 0.000316 µM); 91.8% (second compound 1 µM, first compound 0.001 µM); 68.7% under setting [14]; 16.2% under setting [15]; 2.54% under setting [16]; 2.95% under setting [17]. Besides, the viability, T/C reads like this: (second compound 3.16 µM, first compound 0.000316 µM) 96.9%; (second compound 3.16 µM, first compound 0.001 µM) 79.8%; under setting [18], 92.3%; under setting [19], 31.1%; under setting [20], 12.2%; under setting [21], 2.55%. In addition, the viability, T/C was 92.6% (second compound 10 µM, first compound 0.000316 µM); 88.9% (second compound 10 µM, first compound 0.001 µM); 81.9% under setting [22]; 1.81% under setting [23]; 1.16% under setting [24]; 1.64% under setting [25].
`CNC(C)C(=O)NC1CN(S(=O)(=O)c2cccc(S(=O)(=O)N3CCC4CCC(C(=O)NC(c5ccccc5)c5ccccc5)N4C(=O)C(NC(=O)C(C)NC)C3)c2)CCC2CCC(C(=O)NC(c3ccccc3)c3ccccc3)N2C1=O` (centres undefined) + Cc1c(S(C)(=O)=O)c(-c2cc(F)cc(N3CCN(c4ccc(NS(=O)(=O)c5ccc(NC(CCN6CCC(C(=O)OCCCP(=O)(O)O)CC6)CSc6ccccc6)c(S(=O)(=O)C(F)(F)F)c5)cc4)CC3)c2)c(-c2ccc(Cl)cc2)n1C(C)C: the IC50 was greater than 1000 nM under setting [1]; greater than 1000 nM under setting [2]; greater than 1000 nM under setting [3]; greater than 1000 nM under setting [4]; greater than 1000 nM under setting [5]. The viability, T/C was 114% under setting [6]; 122% under setting [7]; 111% under setting [8]; 120% under setting [9]; 99.8% (second compound 0.1 µM, first compound 0.316 µM); 128% (second compound 0.1 µM, first compound 1 µM). For the same molecule, the viability, T/C is, setting by setting: under setting [10], 93.6%; under setting [11], 117%; under setting [12], 107%; under setting [13], 102%; (second compound 0.316 µM, first compound 0.316 µM) 104%; (second compound 0.316 µM, first compound 1 µM) 112%. Moreover, the viability, T/C under setting [14] is 115%; the viability, T/C under setting [15] is 97.5%; the viability, T/C under setting [16] is 107%; the viability, T/C under setting [17] is 103%; the viability, T/C (second compound 1 µM, first compound 0.316 µM) is 76.9%; the viability, T/C (second compound 1 µM, first compound 1 µM) is 91%. Also, the viability, T/C reads like this: under setting [18], 102%; under setting [19], 112%; under setting [20], 109%; under setting [21], 96.6%; (second compound 3.16 µM, first compound 0.316 µM) 85.7%; (second compound 3.16 µM, first compound 1 µM) 104%. Further, the viability, T/C by setting is: under setting [22], 110%; under setting [23], 104%; under setting [24], 70.4%; under setting [25], 87.7%; (second compound 10 µM, first compound 0.316 µM) 111%; (second compound 10 µM, first compound 1 µM) 98.6%.
In the case of `C#Cc1c(F)ccc2cc(O)cc(-c3ncc4c(N5CC6CCC(C5)N6)nc(OCC56CCCN5CC(F)C6)nc4c3F)c12` (centres undefined), the viability, T/C is 111% and 93.4% and 94.4% (compound 0.0316 µM); 104% and 103% and 112% (compound 0.1 µM); 99.3% and 99.1% and 92.8% (compound 0.316 µM); 94.8% and 105% and 84.2% (compound 1 µM); 106% and 112% and 123% (compound 3.16 µM); 99.8% and 88.4% and 92.8% (compound 10 µM). Moreover, the IC50 (curve of compound) was greater than 10000 nM.
As to `C=CC(=O)N1CCN(c2nc(=O)n(-c3c(C)ccnc3C(C)C)c3nc(-c4c(O)cccc4F)c(F)cc23)C(C)C1` (centres undefined), the viability, T/C (compound 0.0316 µM) was 101% and 89.6% and 100%; the viability, T/C (compound 0.1 µM) is 100% and 95.4% and 104%; the viability, T/C (compound 0.316 µM) was 105% and 90.3% and 98.7%; the viability, T/C (compound 1 µM) is 94.5% and 82.8% and 106%; the viability, T/C (compound 3.16 µM) is 108% (2×) and 100%; the viability, T/C (compound 10 µM) was 96.6% and 75.9% and 110%. Also, the IC50 (curve of compound) was greater than 10000 nM.

The values are drawn from PubChem BioAssay AID1963438 (Molecular Pharmacology Branch, DTP, NCI, 2024).
